We go through one compound from patent US20220118116A1, “ADHESIVE/ADSORPTION SWITCH ON NANOPARTICLES TO INCREASE TUMOR UPTAKE AND DELAY TUMOR CLEARANCE” (The Johns Hopkins University, priority 2019, published 2022).

Each structure is given as a SMILES string. Like-named read-outs stand apart in the source and are kept apart here.

The test system of one series is MDA-MB-231 (ALN2). The experiment in a line: IC50 on cell monolayers (MTT assay). It counts as cell-based, human. The following applies: 6-hour incubation, read-out: IC50 of free cisplatin. The method, then:
(§1) To determine the IC50 of liposomal cisplatin and of free cisplatin, 20,000 cells per well were plated in 96-well plates. A range of concentrations of sterilized liposomes (containing or not cisplatin) or of free cisplatin was added to the wells mixed in media (with 10% FBS) at pH 7.4 and pH 6.5. Upon completion of a 6-hour incubation, cells were washed twice with PBS, and 10% FBS-supplemented fresh media was then added to wells. After two doubling times an MTT assay (Promega, Madison, Wis.) was used (following the vendor's instructions) to evaluate percent cell viability. Absorbance was read at 570 nm.
as §1, with “sterile” for “sterilized”, “6 hour” for “6-hour”

Another series has as its system MDA-MB-231 (ATCC). The series can be described thus: IC50 on cell monolayers (MTT assay). It counts as cell-based, human. The following applies: 6-hour incubation, read-out: IC50 of free cisplatin. The method, then:
as §1
as §1, with “sterile” for “sterilized”, “6 hour” for “6-hour”

For another series, the system named is MDA-MB-231 (LUNG1). The series can be described thus: IC50 on cell monolayers (MTT assay). It counts as cell-based, human. The following applies: 6-hour incubation, read-out: IC50 of free cisplatin. The method, then:
as §1
as §1, with “sterile” for “sterilized”, “6 hour” for “6-hour”

In the next series the test system is MDA-MB-231 (PRI3). The series can be described thus: IC50 on cell monolayers (MTT assay). Conditions: 6-hour incubation, read-out: IC50 of free cisplatin. The class given is cell-based, human. The method, then: as §1
as §1, with “sterile” for “sterilized”, “6 hour” for “6-hour”

The subject of another series is MDA-MB-436 (ATCC). The series can be described thus: IC50 on cell monolayers (MTT assay). It counts as cell-based, human. The following applies: 6-hour incubation, read-out: IC50 of free cisplatin. On the procedure:
as §1
as §1, with “sterile” for “sterilized”, “6 hour” for “6-hour”

The conditions of series [1]: Leite et al., 2012; cited from earlier work.
Series [2] deals with spontaneous MDA-MB-231 axillary lymph node (ALN) metastases. The series can be described thus: Growth control of spontaneous TNBC metastases in vivo (cisplatin). Conditions: 7.5 mg/Kg i.v., three times in five-day intervals.

Turning to `N.N.[Cl][Pt][Cl]` [free cisplatin, cis-diamminedichloroplatinum (II)], the concentration for half-maximal inhibition (IC50) with MDA-MB-231 (ALN2) (pH 6.5) was found to be 40.2 ± 7.4 µM; with MDA-MB-231 (ALN2) (pH 7.4), 39.2 ± 5.9 µM; in the series with MDA-MB-231 (ATCC) (pH 6.5), 47.7 ± 4.4 µM; in the series on MDA-MB-231 (ATCC) (pH 7.4) it was 45.2 ± 8.2 µM; in the series with MDA-MB-231 (LUNG1) (pH 6.5), 42.6 ± 6.2 µM; with MDA-MB-231 (LUNG1) (pH 7.4), 40.2 ± 6.4 µM. Also, the half-inhibitory concentration (IC50) in the series with MDA-MB-231 (PRI3) (pH 6.5) stood at 37.7 ± 13.4 µM; in the series with MDA-MB-231 (PRI3) (pH 7.4), 32.4 ± 7.8 µM; with MDA-MB-436 (ATCC) (pH 6.5) it was 3.2 ± 0.73 µM; in the series with MDA-MB-436 (ATCC) (pH 7.4), 2.46 ± 0.9 µM. Besides, the “reported MTD” value in series [1] was 7.5 mg/kg. Besides, the animal survival result in series [2] is given as “shortest animal survival”. In series [2], the “animals euthanized because of weight loss” value turned out to be 100%.
